Experimental data as given in ChEMBL document CHEMBL6127052, “Discovery of membrane-targeting amphiphilic honokiol derivatives containing an oxazolethione moiety to combat methicillin-resistant Staphylococcus aureus (MRSA) infections” (Eur J Med Chem, 2024).
Active and inactive are the calls of the source. The calls are words filed in the database; no cut-off is given here.

Assays:
Staphylococcus aureus [1] = test: Induction of resistance development in Staphylococcus aureus ATCC 29213 assessed as increase in MIC at 0.5 times MIC treated for 4 days of consecutive passages; format: functional, organism-based; details: time 4.0 day
Staphylococcus aureus [2] = test: Induction of resistance development in Staphylococcus aureus ATCC 29213 assessed as fold increase in MIC at 0.5 times MIC treated for 18 days of consecutive passages; format: functional; details: time 18 day
Staphylococcus aureus [3] = test: Antibacterial activity against methicillin-resistant Staphylococcus aureus clinical isolate M12 infected in KM mouse assessed as decrease in erythematous pustules in intradermal tissues at 5 mg/kg, sc measured after 24 hrs; format: functional, organism-based
[4] = Toxicity in sepsis BALB/c mouse model infected with methicillin-resistant Staphylococcus aureus clinical isolate M12 assessed as survival rate at 12 mg/kg, ip administered consecutively at 12 hr-interval for 7 days measured after 24 hrs post-last dose; format: organism-based; details: in vivo, 192 h, time 8 day
Staphylococcus aureus [5] = test: Antibacterial activity against methicillin-resistant Staphylococcus aureus clinical isolate M12 infected in sepsis BALB/c mouse model assessed as decrease in bacterial load in spleen at 12 mg/kg, ip administered consecutively at 12 hr-interval for 24 hrs measured after 24 hrs post-last dose; format: functional; details: time 48 hrs
[6] = Toxicity in KM mouse infected with methicillin-resistant Staphylococcus aureus clinical isolate M12 assessed as histopathological abnormality in liver at 5 mg/kg, sc measured after 24 hrs by H and E staining based analysis; format: organism-based; details: in vivo
Staphylococcus aureus [7] = test: Antibacterial activity against methicillin-resistant Staphylococcus aureus clinical isolate M12 infected in sepsis BALB/c mouse model assessed as decrease in bacterial load in liver at 12 mg/kg, ip administered consecutively at 12 hr-interval for 24 hrs measured after 24 hrs post-last dose; format: functional; details: time 48 hrs
Staphylococcus aureus [8] = test: Antibacterial activity against methicillin-resistant Staphylococcus aureus clinical isolate M12 infected in sepsis BALB/c mouse model assessed as decrease in necrosis in renal tubular epithelial cells at 12 mg/kg, ip administered consecutively at 12 hr-interval for 24 hrs measured after 24 hrs post-last dose by H and E staining based analysis; format: functional, organism-based; details: time 48.0 hrs
[9] = Toxicity in KM mouse infected with methicillin-resistant Staphylococcus aureus clinical isolate M12 assessed as histopathological abnormality in heart at 5 mg/kg, sc measured after 24 hrs by H and E staining based analysis; format: organism-based; details: in vivo
Staphylococcus aureus [10] = test: Antibacterial activity against methicillin-resistant Staphylococcus aureus clinical isolate M12 infected in sepsis BALB/c mouse model assessed as decrease in degeneration of renal tubular epithelial cells at 12 mg/kg, ip administered consecutively at 12 hr-interval for 24 hrs measured after 24 hrs post-last dose by H and E staining based analysis; format: functional, organism-based; details: time 48.0 hrs
[11] = Toxicity in KM mouse infected with methicillin-resistant Staphylococcus aureus clinical isolate M12 assessed as histopathological abnormality in kidney at 5 mg/kg, sc measured after 24 hrs by H and E staining based analysis; format: organism-based; details: in vivo
Staphylococcus aureus [12] = test: Antibacterial activity against methicillin-resistant Staphylococcus aureus clinical isolate M12 infected in sepsis BALB/c mouse model assessed as decrease in necrosis in hepatocytes at 12 mg/kg, ip administered consecutively at 12 hr-interval for 24 hrs measured after 24 hrs post-last dose by H and E staining based analysis; format: functional, organism-based; details: time 48.0 hrs
Staphylococcus aureus [13] = test: Antibacterial activity against methicillin-resistant Staphylococcus aureus clinical isolate M12 infected in KM mouse assessed as decrease in erythematous pustules at infected skin on back of animal at 5 mg/kg, sc measured after 24 hrs; format: functional, organism-based
Staphylococcus aureus [14] = test: Antibacterial activity against methicillin-resistant Staphylococcus aureus clinical isolate M12 infected in sepsis BALB/c mouse model assessed as decrease in bacterial load in kidney at 12 mg/kg, ip administered consecutively at 12 hr-interval for 24 hrs measured after 24 hrs post-last dose; format: functional; details: time 48 hrs
[15] = Toxicity in KM mouse infected with methicillin-resistant Staphylococcus aureus clinical isolate M12 assessed as damage in kidney at 5 mg/kg, sc measured after 24 hrs by H and E staining based analysis; format: organism-based; details: in vivo
[16] = Toxicity in KM mouse infected with methicillin-resistant Staphylococcus aureus clinical isolate M12 assessed as histopathological abnormality in lung at 5 mg/kg, sc measured after 24 hrs by H and E staining based analysis; format: organism-based; details: in vivo
Staphylococcus aureus [17] = test: Antibacterial activity against methicillin-resistant Staphylococcus aureus clinical isolate M12 infected in sepsis BALB/c mouse model assessed as decrease in degeneration of hepatocytes at 12 mg/kg, ip administered consecutively at 12 hr-interval for 24 hrs measured after 24 hrs post-last dose by H and E staining based analysis; format: functional, organism-based; details: time 48.0 hrs
Staphylococcus aureus [18] = test: Antibacterial activity against methicillin-resistant Staphylococcus aureus clinical isolate M12 infected in sepsis BALB/c mouse model assessed as decrease in pathological change in white medulla of spleen at 12 mg/kg, ip administered consecutively at 12 hr-interval for 24 hrs measured after 24 hrs post-last dose by H and E staining based analysis; format: functional, organism-based; details: time 48.0 hrs
[19] = Toxicity in KM mouse infected with methicillin-resistant Staphylococcus aureus clinical isolate M12 assessed as damage in lung at 5 mg/kg, sc measured after 24 hrs by H and E staining based analysis; format: organism-based; details: in vivo
[20] = Toxicity in KM mouse infected with methicillin-resistant Staphylococcus aureus clinical isolate M12 assessed as histopathological abnormality in spleen at 5 mg/kg, sc measured after 24 hrs by H and E staining based analysis; format: organism-based; details: in vivo
[21] = Toxicity in KM mouse infected with methicillin-resistant Staphylococcus aureus clinical isolate M12 assessed as damage in liver at 5 mg/kg, sc measured after 24 hrs by H and E staining based analysis; format: organism-based; details: in vivo
Staphylococcus aureus [22] = test: Antibacterial activity against methicillin-resistant Staphylococcus aureus clinical isolate M12 infected in KM mouse assessed as decrease in bacterial load in skin tissues at 5 mg/kg, sc measured after 24 hrs by drop-plate counting method (reference value: 6.7); format: functional
Staphylococcus aureus [23] = test: Antibacterial activity against methicillin-resistant Staphylococcus aureus clinical isolate M12 infected in KM mouse assessed as reduction in TNF-alpha level at infection site at 5 mg/kg, sc measured after 24 hrs by ELISA; format: functional
Staphylococcus aureus [24] = test: Antibacterial activity against methicillin-resistant Staphylococcus aureus clinical isolate M12 infected in KM mouse assessed as reduction in IL-6 level at infection site at 5 mg/kg, sc measured after 24 hrs by ELISA; format: functional
Staphylococcus aureus [25] = test: Antibacterial activity against methicillin-resistant Staphylococcus aureus clinical isolate M12 infected in KM mouse assessed as decrease in bacterial survival rate at 5 mg/kg, sc measured after 24 hrs by drop-plate counting method relative to control; format: functional
[26] = Toxicity in KM mouse infected with methicillin-resistant Staphylococcus aureus clinical isolate M12 assessed as damage in spleen at 5 mg/kg, sc measured after 24 hrs by H and E staining based analysis; format: organism-based; details: in vivo
Staphylococcus aureus [27] = test: Antibacterial activity against methicillin-resistant Staphylococcus aureus clinical isolate M12 infected in sepsis BALB/c mouse model assessed as decrease in pathological change in red medulla of spleen at 12 mg/kg, ip administered consecutively at 12 hr-interval for 24 hrs measured after 24 hrs post-last dose by H and E staining based analysis; format: functional, organism-based; details: time 48.0 hrs
[28] = Toxicity in KM mouse infected with methicillin-resistant Staphylococcus aureus clinical isolate M12 assessed as damage in heart at 5 mg/kg, sc measured after 24 hrs by H and E staining based analysis; format: organism-based; details: in vivo
Staphylococcus aureus [29] = test: Antibacterial activity against methicillin-resistant Staphylococcus aureus clinical isolate M22 by CLSI based micro-broth dilution method; format: functional
Staphylococcus aureus [30] = test: Antibacterial activity against Staphylococcus aureus ATCC 29213 by CLSI based micro-broth dilution method; format: functional
Staphylococcus aureus [31] = test: Antibacterial activity against methicillin-resistant Staphylococcus aureus clinical isolate M17 by CLSI based micro-broth dilution method; format: functional
Staphylococcus aureus [32] = test: Antibacterial activity against methicillin-resistant Staphylococcus aureus clinical isolate M12 by CLSI based micro-broth dilution method; format: functional
Staphylococcus aureus [33] = test: Antibacterial activity against methicillin-resistant Staphylococcus aureus clinical isolate M23 by CLSI based micro-broth dilution method; format: functional
[34] = Hemolytic activity in sheep erythrocytes incubated for 1 hr by absorbance based assay; format: toxicity, cell-based, Ovis aries, Erythrocyte
[35] = Selectivity index, ratio of HC50 for hemolytic activity in sheep erythrocytes to MIC for antibacterial activity against Staphylococcus aureus ATCC 29213; format: toxicity, cell-based, RBC
Staphylococcus aureus [36] = test: Antibacterial activity against methicillin-resistant Staphylococcus aureus N315 by CLSI based micro-broth dilution method; format: functional
Staphylococcus aureus [37] = test: Antibacterial activity against methicillin-resistant Staphylococcus aureus clinical isolate M21 by CLSI based micro-broth dilution method; format: functional
Staphylococcus aureus [38] = test: Antibacterial activity against methicillin-resistant Staphylococcus aureus clinical isolate M16 by CLSI based micro-broth dilution method; format: functional
Escherichia coli = test: Antibacterial activity against Escherichia coli ATCC 25922 by CLSI based micro-broth dilution method; format: functional
Staphylococcus aureus [39] = test: Antibacterial activity against methicillin-resistant Staphylococcus aureus clinical isolate M20 by CLSI based micro-broth dilution method; format: functional
Staphylococcus aureus [40] = test: Antibacterial activity against methicillin-resistant Staphylococcus aureus clinical isolate M14 by CLSI based micro-broth dilution method; format: functional
Staphylococcus aureus [41] = test: Antibacterial activity against methicillin-resistant Staphylococcus aureus clinical isolate M11 by CLSI based micro-broth dilution method; format: functional
Staphylococcus aureus [42] = test: Antibacterial activity against methicillin-resistant Staphylococcus aureus clinical isolate M13 by CLSI based micro-broth dilution method; format: functional

## CCn1cc(C(=O)O)c(=O)c2cc(F)c(N3CCNCC3)cc21 [NORFLOXACIN]
Staphylococcus aureus [1]
  Activity: Active
Staphylococcus aureus [2]
  fold change (FC): 128

## CN[C@H](CC(C)C)C(=O)N[C@H]1C(=O)N[C@@H](CC(N)=O)C(=O)N[C@H]2C(=O)N[C@H]3C(=O)N[C@H](C(=O)N[C@H](C(=O)O)c4cc(O)cc(O)c4-c4cc3ccc4O)[C@H](O)c3ccc(c(Cl)c3)Oc3cc2cc(c3O[C@@H]2O[C@H](CO)[C@@H](O)[C@H](O)[C@H]2O[C@H]2C[C@](C)(N)[C@H](O)[C@H](C)O2)Oc2ccc(cc2Cl)[C@H]1O [VANCOMYCIN]
Staphylococcus aureus [3]
  Activity: inactive
[4]
  Survival: 50%
Staphylococcus aureus [5]
  Activity: 1.57 log10CFU/g
[6]
  Activity: Non-Toxic
Staphylococcus aureus [7]
  Activity: 1.62 log10CFU/g
Staphylococcus aureus [8]
  Activity: Active
[9]
  Activity: Non-Toxic
Staphylococcus aureus [10]
  Activity: Active
[11]
  Activity: Non-Toxic
Staphylococcus aureus [12]
  Activity: Active
Staphylococcus aureus [13]
  Activity: inactive
Staphylococcus aureus [14]
  Activity: 1.48 log10CFU/g
[15]
  Activity: Non-Toxic
[16]
  Activity: Non-Toxic
Staphylococcus aureus [17]
  Activity: Active
Staphylococcus aureus [18]
  Activity: Active
[19]
  Activity: Non-Toxic
[20]
  Activity: Non-Toxic
[21]
  Activity: Non-Toxic
Staphylococcus aureus [22]
  Activity: 1.4 log10CFU/g
Staphylococcus aureus [23]
  Activity: 96.3 pg/mL
Staphylococcus aureus [24]
  Activity: 56.5 pg/mL
Staphylococcus aureus [25]
  Activity: 93.33%
[26]
  Activity: Non-Toxic
Staphylococcus aureus [27]
  Activity: Active
[28]
  Activity: Non-Toxic

## C=CCc1cc(-c2ccc(OCCC[N+](C)(C)CC(=O)NCCCC)c(CC=C)c2)c2oc(=S)n(Cc3ccccc3Br)c2c1.[Br-]
Staphylococcus aureus [29]
  MIC: 32 µg/mL
Staphylococcus aureus [30]
  MIC: 128 µg/mL
Staphylococcus aureus [31]
  MIC: 64 µg/mL
Staphylococcus aureus [32]
  MIC: 16 µg/mL
Staphylococcus aureus [33]
  MIC: 64 µg/mL
[34]
  HC50 at 1 h: > 160 µg/mL
[35]
  selectivity ratio: > 1.3
Staphylococcus aureus [36]
  MIC: 128 µg/mL
Staphylococcus aureus [37]
  MIC: 32 µg/mL
Staphylococcus aureus [38]
  MIC: 64 µg/mL
Escherichia coli
  MIC: > 128 µg/mL
Staphylococcus aureus [39]
  MIC: 64 µg/mL
Staphylococcus aureus [40]
  MIC: 128 µg/mL
Staphylococcus aureus [41]
  MIC: 64 µg/mL
Staphylococcus aureus [42]
  MIC: 128 µg/mL

## C=CCc1cc(-c2ccc(OCCC[N+](C)(C)CC(=O)NCCCC)c(CC=C)c2)c2oc(=S)n(Cc3ccc(F)c(Br)c3)c2c1.[Br-]
Staphylococcus aureus [29]
  MIC: 32 µg/mL
Staphylococcus aureus [30]
  MIC: 16 µg/mL
Staphylococcus aureus [31]
  MIC: 16 µg/mL
Staphylococcus aureus [32]
  MIC: 4 µg/mL
Staphylococcus aureus [33]
  MIC: 8 µg/mL
[34]
  HC50 at 1 h: 42.1 µg/mL
[35]
  selectivity ratio: 2.6
Staphylococcus aureus [36]
  MIC: 16 µg/mL
Staphylococcus aureus [37]
  MIC: 4 µg/mL
Staphylococcus aureus [38]
  MIC: 8 µg/mL
Escherichia coli
  MIC: > 128 µg/mL
Staphylococcus aureus [39]
  MIC: 4 µg/mL
Staphylococcus aureus [40]
  MIC: 8 µg/mL
Staphylococcus aureus [41]
  MIC: 8 µg/mL
Staphylococcus aureus [42]
  MIC: 8 µg/mL
